Reference: US20120252721A1 (priority 2011, published 2012)

Key:
[1] = system: HCV genotype 4a NS5A within the 1b-replicon; experiment: Luciferase replicon assay, NS5A-intergenotypic stable cell line genotype 4a; assay type: cell-based; conditions: Hepatitis C virus, read-out: EC50 4a
From the text: (§1) The nucleotide sequences of the NS5A region of genotype 2a (GenBank Accession # AB047639), genotype 3a (GenBank Accession #D17763), and genotype 4a (GenBank Accession# DQ418788) were synthesized by an outside vendor. The NS5A region of each of these genotypes included the first 11 amino acids of the protease recognition sequence of genotype 1b, as well as the last 10 amino acids of genotype 1b. The NS5A gene cassettes were excised with site specific restriction endonucleases and ligated into a ZS11-luciferase genotype 1b backbone (backbone contains the genotype 1b NS3 protease, NS4a, NS4b, and NS5b coding regions) with similarly cut restriction enzyme sites. Thus, the newly constructed plasmid contains a genotype 2a-, 3a- or 4a-specific NS5A gene within the 1b-replicon.
(§2) These new intergenotypic plasmids were used to establish stable cell lines. RNA was generated from the NS5A intergenotypic plasmids and used in conjunction with a lipofectin reagent to transfect a cured Huh7 cell line. Transfected cells were selected for with G418. After selection has occurred the stable cell lines were propagated, tested for luciferase activity, and RT-PCR with genotype specific primers (either 1a, 2a, 3a, or 4a). Stable cell lines containing the intergenotypic replicon were then fully sequenced and analyzed for proper expression of NS3, NS5A and NS5B proteins.
(§3) Drug titration analysis was performed using the luciferase replicon assay described herein.
The HCV luciferase replicon assay measures the ability of a test compound to inhibit HCV replication in cell culture after 3 days of treatment in a human hepatoma cell line (Huh-7) bearing an HCV replicon containing a luciferase-neomycin phosphotransferase fusion gene. The inhibition of HCV replication was measured by quantification of luciferase protein expression. Briefly, Huh-7 cells containing either the HCV genotype 1a H77 strain or genotype 1b Con1 strain subgenomic luciferase replicon (H1a-luc or Zluc, respectively) were grown in DMEM containing glucose, L-glutamine and sodium pyruvate, 10% fetal bovine serum (FBS), 100 IU/mL penicillin, 100 μg/mL streptomycin, 2 mM GlutaMAX, non-essential amino acids and 0.25 (H1a-luc) or 0.5 (Zluc) mg/mL G418. GlutaMAX was obtained from Invitrogen, Corp.; all other media reagents were obtained from Mediatech, Inc. For dose-response testing, the cells were seeded in 96-well plates at 1×10^4 (H1a-luc) or 7.5×10^3 (Zluc) cells/well in a volume of 50 μL, and incubated at 37° C./5% CO2. Three hours after plating, 50 μL of ten 5-fold serial dilutions of compound were added, and cell cultures were incubated at 37° C./5% CO2 for 72 hours. In all cases, Huh-7 cells lacking the HCV replicon served as negative control. To assess luciferase expression, the media/compound was removed from the plates and ONE-glo Luciferase assay reagent (Promega) was added to each well. The assay plates were shaken for 3 minutes at room temperature and luciferase activity for each well was measured with a 1 sec read time on the Victor^3V multilabel counter using a 700 nm cut-off filter (Perkin Elmer). EC50 values were calculated from dose response curves from the resulting best-fit equations determined by Microsoft Excel and XLfit 4.1 software.

HCV genotype 2a = experiment: Genotype 2a assay (NS5A-intergenotypic luciferase replicon / genotype 2a infectious virus assay); assay type: cell-based; conditions: Hepatitis C virus, read-out: EC50 2a
From the text: as §1, §2, §3
The genotype 2a infectious virus assay measures the ability of a test compound to inhibit HCV replication in cell culture after 5 days of treatment at the time of HCV genotype 2a virus infection of a permissive human hepatoma cell line (HPC cells). The inhibition of HCV replication was measured by quantification of HCV core protein expression by an enzyme-linked immunosorbent assay (ELISA). Briefly, HPC cells were grown in DMEM containing glucose, L-glutamine and sodium pyruvate, 10% FBS, 100 IU/mL penicillin, 100 μg/mL streptomycin, 2 mM GlutaMAX, and non-essential amino acids. GlutaMAX was obtained from Invitrogen, Corp.; all other media reagents were obtained from Mediatech, Inc. For dose-response testing, ninety-six-well plates were seeded with HPC cells at a density of 2.5×10^3 cells/well in a volume of 50 μL, and incubated at 37° C./5% CO2. Three hours after plating, 50 μL of ten 5-fold serial dilutions of compound and 100 μL of genotype 2a virus were added, and cell cultures were incubated at 37° C./5% CO2. In all cases, mock infected HPC cells served as negative control. At 16 hours post treatment and infection, the virus inoculum was removed by aspiration. The cultures were treated at the same final concentrations of drug diluted in media and incubated for 4 additional days at 37° C./5% CO2. Subsequently, the core ELISA was performed as follows. The plates were fixed for 90 seconds with acetone/methanol (1:1, v/v), washed three times with KPL wash solution (KPL, Inc.), blocked for 1 hr at room temperature with TNE buffer containing 10% FBS and then incubated for 2 hr at 37° C. with the anti-HCV core mouse monoclonal antibody (Thermo Scientific) diluted in the same buffer. After washing three times with KPL wash solution, the cells were incubated for 1 hr at 37° C. with an anti-mouse immunoglobulin G-peroxidase conjugate in TNE/10% FBS. After washing as described above, the reaction was developed with O-phenylenediamine (Invitrogen). The reaction was stopped after 30 min with 2 NH2SO4, and absorbance was read at 490 nm in a Victor^3V 1420 multilabel counter (Perkin Elmer) and EC50 concentrations were determined using Microsoft Excel and XLfit 4.1 software.
The HCV luciferase replicon assay measures the ability of a test compound to inhibit HCV replication in cell culture after 3 days of treatment in a human hepatoma cell line (Huh-7) bearing an HCV replicon containing a luciferase-neomycin phosphotransferase fusion gene. […]

in vitro = assay type: cell-based, human; conditions: human; Table 1B, cellular viability
In short: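 Cytotoxicity counter-screen in which the H1a-luc or Zluc cells were compound-treated and viability was read with the CellTiter 96 AQueous One (MTS) reagent by absorbance at 490 nm. CC50 values came from curve fitting.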

## COC(=O)N[C@H](C(=O)N1CCC[C@H]1c1ncc(-c2ccc(-c3csc4c(-c5cnc([C@@H]6CCCN6C(=O)[C@@H](NC(=O)OC)C(C)C)[nH]5)csc34)cc2)[nH]1)C(C)C [Compound A15, [(S)-1-((S)-2-{4-[4-(6-{2-[(S)-1-((S)-2-methoxycarbonylamino-3-methyl-butyryl)-pyrrolidin-2-yl]-3H-imidazol-4-yl}-thieno[3,2-b]thiophen-3-yl)-phenyl]-1H-imidazol-2-yl}-pyrrolidine-1-carbonyl)-2-methyl-propyl]-carbamic acid methyl ester]
[1]
  EC50: < 0.0001 µM
HCV genotype 2a
  EC50: < 0.0001 µM
In vitro
  CC50: 10 to 75 µM
